The values below are quoted from earlier work in patent publication US20030143648A1, “Enzyme activity profiles” (priority 2001, published 2003).

The subject of the series is FAAH. The conditions noted are these: pH 8.0.

As for `CCCCCCCC/C=C\CCCCCCCC(N)=O` [oleamide], the “kcat of FAAH for oleamide” value is “approximately 2 s −^1”.
